Test results published in ChEMBL document CHEMBL1143067, “Novel nitrogen mustard-armed combi-molecules for the selective targeting of epidermal growth factor receptor overexperessing solid tumors: discovery of an unusual structure-activity relationship” (J Med Chem, 2007).
Activity calls are given as the source filed them. No cut-off for these calls is given here.

Tests used:
NIH3T3 [1] = assay: Inhibition of serum-stimulated growth of NIH3T3 cells after 3 days by SRB assay
DU-145 [2] = assay: Growth inhibition of human DU145 cells after 3 days by SRB assay
NIH3T3 [3] = assay: Inhibition of serum-stimulated growth of NIH3T3 cells transfected with HER14 after 3 days by SRB assay
[4] = biological target: Epidermal growth factor receptor (Homo sapiens, UniProt P00533); assay: Inhibition of EGFR tyrosine kinase expressed in A431 cells
DU-145 [5] = assay: Induction of cell cycle arrest in human DU145 cells assessed as accumulation at mid-S phase at 10 uM after 24 hrs by flow cytometry; format: functional, cell-based
DU-145 [6] = assay: Induction of cell cycle arrest in human DU145 cells assessed as accumulation at G1 phase at 10 uM after 24 hrs by flow cytometry; format: functional, cell-based
DU-145 [7] = assay: Induction of DNA interstand cross links in human DU145 cells assessed as decrease in comet tail moment after irradiation by single cell gel electrophoresis assay; format: functional, cell-based

Epidermal growth factor receptor, sequence (P00533 whole entry): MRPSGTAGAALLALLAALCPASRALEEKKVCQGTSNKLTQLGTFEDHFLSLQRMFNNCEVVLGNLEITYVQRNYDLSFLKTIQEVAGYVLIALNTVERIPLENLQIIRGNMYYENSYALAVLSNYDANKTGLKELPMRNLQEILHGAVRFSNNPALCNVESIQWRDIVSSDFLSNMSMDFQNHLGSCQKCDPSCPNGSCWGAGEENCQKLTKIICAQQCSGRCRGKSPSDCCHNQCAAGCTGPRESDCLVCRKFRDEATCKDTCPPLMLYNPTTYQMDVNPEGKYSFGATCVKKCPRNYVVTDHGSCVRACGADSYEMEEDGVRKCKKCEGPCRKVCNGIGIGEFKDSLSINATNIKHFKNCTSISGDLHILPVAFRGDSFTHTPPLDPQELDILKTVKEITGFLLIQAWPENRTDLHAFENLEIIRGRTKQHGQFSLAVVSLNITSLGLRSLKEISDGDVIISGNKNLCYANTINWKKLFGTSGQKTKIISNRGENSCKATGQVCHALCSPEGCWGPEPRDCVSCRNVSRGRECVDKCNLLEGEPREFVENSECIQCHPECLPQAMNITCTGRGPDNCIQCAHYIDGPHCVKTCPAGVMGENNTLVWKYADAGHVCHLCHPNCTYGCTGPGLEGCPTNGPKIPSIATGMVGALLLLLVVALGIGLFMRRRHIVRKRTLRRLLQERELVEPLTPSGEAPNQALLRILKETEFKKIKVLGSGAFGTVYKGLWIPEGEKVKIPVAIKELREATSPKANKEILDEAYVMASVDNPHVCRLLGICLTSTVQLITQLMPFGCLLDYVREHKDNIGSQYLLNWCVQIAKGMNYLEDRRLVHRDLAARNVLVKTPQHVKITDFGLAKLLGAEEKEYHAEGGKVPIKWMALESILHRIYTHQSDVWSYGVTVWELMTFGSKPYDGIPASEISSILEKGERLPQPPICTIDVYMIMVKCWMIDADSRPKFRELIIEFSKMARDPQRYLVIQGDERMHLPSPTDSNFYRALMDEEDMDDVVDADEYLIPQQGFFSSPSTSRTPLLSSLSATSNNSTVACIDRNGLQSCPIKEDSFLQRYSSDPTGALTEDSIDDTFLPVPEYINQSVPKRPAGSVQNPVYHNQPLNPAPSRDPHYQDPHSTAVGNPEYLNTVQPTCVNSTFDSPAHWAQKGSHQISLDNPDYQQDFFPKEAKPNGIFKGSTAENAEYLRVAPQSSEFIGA

| SMILES | IC50 (NIH3T3 [1]; Mus musculus, NIH3T3, 72 h) | IC50 (DU-145 [2]; Homo sapiens, DU-145, 72 h) | IC50 (NIH3T3 [3]; Mus musculus, NIH3T3, 72 h) | IC50 [4] | IC50 (NIH3T3 [1]; nih3t3) | IC50 (DU-145 [2]; du-145) | IC50 (NIH3T3 [3]; nih3t3) | Activity (DU-145 [5]) | Activity (DU-145 [6]) | Activity (DU-145 [7]) |
| --- | --- | --- | --- | --- | --- | --- | --- | --- | --- | --- |
| CN(C)CCN/N=N/c1ccc2ncnc(Nc3cccc(Cl)c3)c2c1 | 39.5 µM | 37.2 µM | 1.67 µM | 37 nM | – | – | – | – | – | – |
| Nc1ccc2ncnc(Nc3cccc(Cl)c3)c2c1 | – | – | – | – | 38.4 µM | 34.1 µM | 3.19 µM | – | – | – |
| ClCCN(CCNN=Nc1ccc2ncnc(Nc3cccc(Cl)c3)c2c1)c1ccc(Cl)cc1 | 27.6 µM | 4.7 µM | 12 µM | 2200 nM | – | – | – | – | – | – |
| ClCCN(CCNN=Nc1ccc2ncnc(Nc3cccc(Cl)c3)c2c1)Cc1ccccc1 | 15.2 µM | 10.6 µM | 2.93 µM | 71 nM | – | – | – | – | – | – |
| COc1ccc(N(CCCl)CCN/N=N/c2ccc3ncnc(Nc4cccc(Cl)c4)c3c2)cc1 | 9.07 µM | 7.95 µM | 6.22 µM | 3960 nM | – | – | – | – | – | – |
| COc1ccc(N(CCN=NNc2ccc3ncnc(Nc4cccc(Cl)c4)c3c2)CC(C)Cl)cc1 (stereo not given) | 21.5 µM | 11.4 µM | 5.75 µM | 970 nM | – | – | – | – | – | – |
| CN(CCCl)CCN/N=N/c1ccc2ncnc(Nc3cccc(Cl)c3)c2c1 | 27.2 µM | 2.6 µM | 1.31 µM | 4.4 nM | – | – | – | Active | Active | Dose-dependent effect |
